From US10519111B2, “UV absorbing compounds, compositions comprising same and uses thereof” (CORAL SUNSCREEN PTY LTD, priority 2013, dated 2019)

Assays:
[1] = Critical wavelength (λcrit), approximate in-house measurement; format: physicochemical; details: values only approximate
Text: As the precise test for critical wavelength was unable to be replicated exactly by the inventors due to the need for specialist equipment and a specific calibration of the spectrophotometer, these values are only approximate to a degree. […] This represents a highly useful result and so, compounds based around this benzoyl substitution pattern shown, are especially preferred.

[2] = literature value, standardised test; cited from earlier work
[3] = UV absorption properties (λmax, molar extinction coefficient ε, efficiency E 1%, 1 cm); format: physicochemical; details: for ε (molar extinction coefficient): values in order of the λmax values

| Compound | critical wavelength [1] | critical wavelength, reported [2] | UV λmax [3] | ε (molar extinction coefficient) [3] | melting point |
| --- | --- | --- | --- | --- | --- |
| COc1ccc(C(=O)CC(=O)c2ccc(C(C)(C)C)cc2)cc1 [Avobenzone, reference compound] | 378 nm | 380 nm |  |  |  |
| CC1(C)CCN(C(C)(C)C)C=C1C(=O)c1ccc(C(=O)C2=CN(C(C)(C)C)CCC2(C)C)cc1 [Compound 159, 1,4-phenylenebis((1-(tert-butyl)-4,4-dimethyl-1,4,5,6-tetrahydropyridin-3-yl)methanone)] |  |  | 317 nm | 33982 M⁻¹ cm⁻¹ | 243 °C (dec.) |
| CC1(C)CCN(C(C)(C)C)C=C1C(=O)c1ccc(C(=O)O)cc1 [Compound 160, 4-(1-(tert-butyl)-4,4-dimethyl-1,4,5,6-tetrahydropyridine-3-carbonyl)benzoic acid] |  |  | 317 nm | 17300 M⁻¹ cm⁻¹ | 80 to 83 °C |
| CC1(C)CCN(c2ccc(C(C)(C)C)cc2)C=C1C(OC(=O)C1c2ccccc2-c2ccccc21)=C1c2ccccc2-c2ccccc21 [Compound 206, (1-(4-(tert-butyl)phenyl)-4,4-dimethyl-1,4,5,6-tetrahydropyridin-3-yl)(9H-fluoren-9-ylidene)methyl 9H-fluorene-9-carboxylate] |  |  | 407 nm |  | 145 °C |
